Assays:
[1] = tested on: patients with interstitial lung disease and pulmonary hypertension; assay: Pulmonary function tests (FVC, FEV1, TLC, DLCO), mixed model repeated measurement, INCREASE; format: in vivo, human
Method: Subjects having underlying lung disease were treated with inhaled treprostinil over 16 weeks. Subjects initiated inhaled treprostinil or placebo at a dose of 3 breaths (18 mcg) 4 times daily (during waking hours). Study drug doses were maximized throughout the study. Dose escalations (additional 1 breath 4 times daily) could occur up to every 3 days with a target dosing regimen of 9 breaths (54 mcg) 4 times daily and a maximum dose of 12 breaths (72 mcg) 4 times daily, as clinically tolerated. Subjects were assessed during Screening and Baseline to determine eligibility for the study. Once eligible, 5 Treatment Phase visits to the clinic were required at Week 4, Week 8, Week 12, Week 15, and Week 16 (final study visit). An Early Termination (ET) Visit was conducted for subjects who discontinued prior to Week 16; all assessments planned for the final Week 16 Visit were conducted during the ET Visit, if applicable. Subjects were contacted at least weekly by telephone or email to assess tolerance to study drug, adverse events (AEs), and changes to concomitant medications.
Pulmonary function testing was initially conducted as a safety assessment (Safety Population) during the study. […] As a result, post hoc MMRM analyses of FVC data were performed for the ITT Population and are presented in Table 1 (ITT Population), Table 2 (by PH ILD Etiology of IIP) and Table 3 (for subjects with IPF), shown below.
(§1) The 6-minute walk test was performed and laboratory data were obtained at baseline and at weeks 4, 8, 12, and 16, or at the time of early discontinuation of treprostinil or placebo. Each 6-minute walk test was performed 10 to 60 minutes after the most recent dose of active drug or placebo, which is the time of peak plasma treprostinil exposure. A trough test was performed at week 15 at least 4 hours after the participant received a dose of treprostinil or placebo and at least 24 hours before the week 16 test. Pulse oximetry was performed immediately before, during, and after each 6-minute walk test. Measurement of N-terminal pro-B-type natriuretic peptide (NT-proBNP) levels and pulmonary function tests were performed at baseline and at weeks 8 and 16 (or at early discontinuation) after the patients recovered from the 6-minute walk test. The St. George's Respiratory Questionnaire (SGRQ), a quality-of-life measure, was completed at baseline and week 16 or at the time of early discontinuation.
LS Mean (SE); P-values; estimated difference (SE); and associated 95% CIs are from the mixed model repeated measurement with the change from Baseline in pulmonary function test parameter as the dependent variable; treatment, week, treatment by week interaction as the fixed effects; Baseline measurement as the covariate; and subject as the random effect. An unstructured variance/covariance structure shared across treatment groups was used to model the within-subject errors.

[2] = tested on: patients with interstitial lung disease and pulmonary hypertension; assay: SpO2 by pulse oximetry around the 6-minute walk test, INCREASE; format: in vivo, human
Method: as §1

[3] = Week 8, subjects with IPF, listed as inhaled treprostinil
[4] = Week 16, subjects with IPF, listed as inhaled treprostinil

Q: What does the source list for `CCCCC[C@H](O)CC[C@@H]1[C@H]2Cc3cccc(OCC(=O)O)c3C[C@H]2C[C@H]1O` [Inhaled treprostinil, treprostinil]?
A: effect on any pulmonary function test variable during the trial ([1]; 16-week trial): no deleterious effect; FVC (% predicted), Estimated Difference Inhaled treprostinil - Placebo ([1]; Week 8, ITT Population, MMRM): 1.79 % predicted; FVC (% predicted), LS Mean change from baseline ([1]; Week 8, ITT Population, MMRM): 0.77 % predicted; FVC (mL), Estimated Difference Inhaled treprostinil - Placebo ([1]; Week 8, ITT Population, MMRM): 28.47 mL; FVC (mL), LS Mean change from baseline ([1]; Week 8, ITT Population, MMRM): 5.49 mL; DLCO (% predicted), Estimated Difference Inhaled treprostinil − Placebo ([1]; Week 8, MMRM): 1.07 % predicted; DLCO (% predicted), LS Mean change from Baseline ([1]; Week 8, MMRM): −0.13 % predicted; DLCO (mL/min/mmHg), Estimated Difference Inhaled treprostinil − Placebo ([1]; Week 8, MMRM): 0.19 mL/min/mmHg; DLCO (mL/min/mmHg), LS Mean change from Baseline ([1]; Week 8, MMRM): −0.27 mL/min/mmHg; FEV1 (% predicted), Estimated Difference Inhaled treprostinil − Placebo ([1]; Week 8, MMRM): 0.57 % predicted; FEV1 (% predicted), LS Mean change from Baseline ([1]; Week 8, MMRM): −0.18 % predicted; FEV1 (mL), Estimated Difference Inhaled treprostinil − Placebo ([1]; Week 8, MMRM): -8.95 mL; FEV1 (mL), LS Mean change from Baseline ([1]; Week 8, MMRM): -21.34 mL; TLC (% predicted), Estimated Difference Inhaled treprostinil − Placebo ([1]; Week 8, MMRM): 0.28 % predicted; TLC (% predicted), LS Mean change from Baseline ([1]; Week 8, MMRM): −0.05 % predicted; TLC (mL), Estimated Difference Inhaled treprostinil − Placebo ([1]; Week 8, MMRM): -16.23 mL; TLC (mL), LS Mean change from Baseline ([1]; Week 8, MMRM): -38.75 mL; FVC (% predicted), Estimated Difference Inhaled treprostinil - Placebo ([1]; Week 8, PH-ILD etiology IIP): 1.95 % predicted; FVC (% predicted), LS Mean change from baseline ([1]; Week 8, PH-ILD etiology IIP): 0.92 % predicted; FVC (mL), Estimated Difference Inhaled treprostinil - Placebo ([1]; Week 8, PH-ILD etiology IIP): 46.48 mL; FVC (mL), LS Mean change from baseline ([1]; Week 8, PH-ILD etiology IIP): 9.27 mL; FVC (% predicted), Estimated Difference Inhaled treprostinil - Placebo ([1]; Week 8, subjects with IPF): 2.543 % predicted; FVC (% predicted), LS Mean change from baseline ([1]; Week 8, subjects with IPF): 1.60 % predicted; FVC (mL), Estimated Difference Inhaled treprostinil - Placebo ([1]; Week 8, subjects with IPF): 84.522 mL; FVC (mL), LS Mean change from baseline ([1]; Week 8, subjects with IPF): 41.69 mL; FVC (% predicted), Estimated Difference Inhaled treprostinil - Placebo [1, 3]: 2.54 % predicted; FVC (mL), Estimated Difference Inhaled treprostinil - Placebo [1, 3]: 84.52 mL; FVC (% predicted), Estimated Difference Inhaled treprostinil - Placebo ([1]; Week 16, ITT Population, MMRM): 1.80 % predicted; FVC (% predicted), LS Mean change from baseline ([1]; Week 16, ITT Population, MMRM): 1.07 % predicted; FVC (mL), Estimated Difference Inhaled treprostinil - Placebo ([1]; Week 16, ITT Population, MMRM): 44.40 mL; FVC (mL), LS Mean change from baseline ([1]; Week 16, ITT Population, MMRM): 9.77 mL; DLCO (% predicted), Estimated Difference Inhaled treprostinil − Placebo ([1]; Week 16, MMRM): 0.60 % predicted; DLCO (% predicted), LS Mean change from Baseline ([1]; Week 16, MMRM): −1.14 % predicted; DLCO (mL/min/mmHg), Estimated Difference Inhaled treprostinil − Placebo ([1]; Week 16, MMRM): 0.02 mL/min/mmHg; DLCO (mL/min/mmHg), LS Mean change from Baseline ([1]; Week 16, MMRM): −0.61 mL/min/mmHg; FEV1 (% predicted), Estimated Difference Inhaled treprostinil − Placebo ([1]; Week 16, MMRM): 0.38 % predicted; FEV1 (% predicted), LS Mean change from Baseline ([1]; Week 16, MMRM): −0.24 % predicted; FEV1 (mL), Estimated Difference Inhaled treprostinil − Placebo ([1]; Week 16, MMRM): -2.56 mL; FEV1 (mL), LS Mean change from Baseline ([1]; Week 16, MMRM): -32.18 mL; TLC (% predicted), Estimated Difference Inhaled treprostinil − Placebo ([1]; Week 16, MMRM): 1.49 % predicted; TLC (% predicted), LS Mean change from Baseline ([1]; Week 16, MMRM): 2.52 % predicted; TLC (mL), Estimated Difference Inhaled treprostinil − Placebo ([1]; Week 16, MMRM): 17.37 mL; TLC (mL), LS Mean change from Baseline ([1]; Week 16, MMRM): 45.43 mL; FVC (% predicted), Estimated Difference Inhaled treprostinil - Placebo ([1]; Week 16, PH-ILD etiology IIP): 2.88 % predicted; FVC (% predicted), LS Mean change from baseline ([1]; Week 16, PH-ILD etiology IIP): 1.66 % predicted; FVC (mL), Estimated Difference Inhaled treprostinil - Placebo ([1]; Week 16, PH-ILD etiology IIP): 108.18 mL; FVC (mL), LS Mean change from baseline ([1]; Week 16, PH-ILD etiology IIP): 22.16 mL; FVC (% predicted), median improvement ([1]; Week 16, Safety Population): 1.0%; FVC (% predicted), Estimated Difference Inhaled treprostinil - Placebo ([1]; Week 16, subjects with IPF): 3.504 % predicted; FVC (% predicted), LS Mean change from baseline ([1]; Week 16, subjects with IPF): 1.62 % predicted; FVC (mL), Estimated Difference Inhaled treprostinil - Placebo ([1]; Week 16, subjects with IPF): 168.524 mL; FVC (mL), LS Mean change from baseline ([1]; Week 16, subjects with IPF): 38.24 mL; FVC (% predicted), Estimated Difference Inhaled treprostinil - Placebo [1, 4]: 3.50 % predicted; FVC (mL), Estimated Difference Inhaled treprostinil - Placebo [1, 4]: 168.52 mL; During Walk SpO2 (%), Change from Pre-walk, Median ([2]; Week 16): −17.0%; During Walk SpO2 (%), Value, Median ([2]; Week 16): 77.0%; Post-walk SpO2 (%), Change from Pre-walk, Median ([2]; Week 16): −13.0%; Post-walk SpO2 (%), Value, Median ([2]; Week 16): 83.0%; Pre-walk SpO2 (%), Value, Median ([2]; Week 16): 95.0%; During Walk SpO2 (%), Change from Pre-walk, Mean (SD) ([2]; Week 16, n 123): −17.6 (7.01) %; During Walk SpO2 (%), Value, Mean (SD) ([2]; Week 16, n 123): 76.8 (7.70) %; Post-walk SpO2 (%), Change from Pre-walk, Mean (SD) ([2]; Week 16, n 128): −12.4 (8.05) %; Post-walk SpO2 (%), Value, Mean (SD) ([2]; Week 16, n 128): 82.1 (9.24) %; Pre-walk SpO2 (%), Value, Mean (SD) ([2]; Week 16, n 130): 94.5 (4.35) %; treatment-related changes in pulse oximetry ([2]; over the trial period): no significant treatment-related changes
